Assay results as given in patent US20080139545A1, “FORMULATION TO TREAT EAR INFECTION” (priority 2006, published 2008).
“Also recorded” adds a separate entry of the source. Read-outs that look alike come from different tables or passages of the source.

Key:
[1] = conventional treatments of the same patients before NAC (case histories); format: in vivo, human; details: for response of effusion, tube plugging and otorrhea to conventional treatment: patient one (Example 4), 2002-2005, topical or oral
[2] = topical NAC, rabbit model of otitis media; cited from earlier work
Streptococcus pneumoniae = details: concentrations of 0.003% to 0.8%; cited from earlier work
[3] = system: cochlear outer hair cell (OHC); details: multiple studies; cited from earlier work
Haemophilus influenzae = details: concentrations of 0.003% to 0.8%; cited from earlier work
Escherichia coli = details: concentrations of 0.003% to 0.8%; cited from earlier work
Moraxella catarrhalis = details: concentrations of 0.003% to 0.8%; cited from earlier work
[4] = NAC at a concentration of 0.1%; cited from earlier work
[5] = applied topically to children at a concentration of 2%; cited from earlier work
[6] = administered via transtympanic iontopheresis; cited from earlier work
Klebsiella pneumoniae = details: concentrations of 0.003% to 0.8%; cited from earlier work
polymicrobial cultures = details: concentrations of 0.003% to 0.8%; cited from earlier work
Bacillus species = details: concentrations of 0.003% to 0.8%; cited from earlier work
[7] = system: cochlear outer hair cell (OHC); details: co-administration with NAC at 0.017%; cited from earlier work
[8] = topical NAC, rat model of otitis media; cited from earlier work
[9] = system: Staphylococcus epidermidis; details: concentrations of 0.003% to 0.8%; cited from earlier work
Pseudomonas cultures = details: cited from earlier work
[10] = high first pass metabolism through the liver; cited from earlier work
[11] = conventional treatments of the same patients before NAC (case histories); format: in vivo, human
Excerpt: They developed vertigo and bilateral otalgia in 1997, and presented to our practice. Given their prior history, they underwent an extensive workup from the outset. […] They underwent right-sided T tube placement for chronic Eustachian tube dysfunction in October 1997, with marked improvement of their pressure and fullness. However, they developed intermittent otorrhea, for which they received topical Tobradex. In November, the tube plugged completely, and they underwent tube replacement. Findings were notable for thick mucus filling the middle ear space. […] They underwent a right sided mastoidectomy with tube exchange in December 1997, with intraoperative findings notable for an inflamed mastoid cavity with several areas of cholesterol granuloma, as well as complete aditus blockade.
They continued to have thick, “taupe”-colored otorrhea after surgery. Considering their failure to respond to therapy, the differential was widened. Their evaluations for immunodeficiency and autoimmune pathology were negative. They underwent multiple TT placements and exchanges, as well as a negative culture and a wide laser tympanotomy in June 1998. The tympanotomy afforded them a brief hiatus from drainage from July through August. […] They also required office debridements every week or alternate week until they underwent a revision tympanomastoidectomy in October 1998. Intraoperative findings were notable for a clear mastoid, but a middle ear full of thick mucopurulence and edematous mucosa. The KTP laser was used to widen the tympanotomy and to ablate the middle ear mucosa to the Eustachian tube. Intraoperative cultures returned negative. Their course improved considerably, with only mild intermittent infections through July 1999. However, they were then diagnosed with breast cancer, which was treated with a modified radical mastectomy and adjuvant chemoradiation.
As they were completing their chemotherapy, they redeveloped the same otorrhea, which was treated with continuous, suppressive Floxin drops as well as frequent office debridements. They developed a mastoid abscess in March 2000, for which they underwent a repeat revision mastoidectomy. Preoperative CT imaging raised the concern for osteomyelitis. Intraoperative findings were notable for purulence in the mastoid and subcutaneous tissues, which were debrided widely. Intraoperative cultures returned penicillin-resistant, but otherwise pan-sensitive Staphylococcus aureus. Their otorrhea resumed in April after a brief hiatus. […] They continued to require office debridements on alternate weeks.
They had brief episodes of otorrhea in November 2001, and February and May 2002, which were treated easily with ototopicals.
Their otorrhea restarted in February 2003. They were begun on alternating courses of topical ciprofloxacin and Tobradex, oral azithromycin and metronidazole, as well as office debridements every week or alternating week. […] An infectious disease consultation was obtained, and they were started on high dose Septra per recommendations. […] A followup culture in October was negative.
Given their continued otorrhea, they underwent a revision modified radical tympanomastoidectomy in November 2004, with intraoperative findings notable for a large cholesterol granuloma extending from the mastoid tip to the retrosigmoid region towards the occiput. They had frank purulence in the epi-, pro-, and hypotympanum. The middle ear was packed with Zyvox-soaked Gelfoam. […] After a brief respite, their otorrhea restarted the following month. […] Multiple cultures returned negative except for occasional colonies of Candida albicans.
patient four is a diabetic with a history of frequent ear infections as a child. They developed ear plugging in May 2004, and was treated with oral antibiotics for otitis media. […] However, they developed chronic otorrhea after tube placement, which persisted despite multiple courses of oral and topical antibiotics. The TT was removed in September, after which they developed a chronic serous effusion. […]

[12] = off-label treatment of patients with Ciprodex augmented with 2% NAC (case reports); format: in vivo, human; details: patient two (Example 1), oral, for presumed fungal superinfection
Excerpt: These patients responded uniformly to the compositions of the present invention. All treated ears ceased to drain within 1-2 weeks of adequate treatment. No ototoxicity was documented by either patient report or audiometry.
Given their multiple treatment failures, they were started at this point on Ciprodex augmented with 2% NAC. Verbal informed consent was obtained prior to starting treatment, and they were continued on oral Zyvox. […] They were given a fresh mixture of NAC with Ciprodex, and their otorrhea and middle ear fluid resolved one week later. […] They have been refrigerating the medication between uses, and hand warming the solution before application.
In November 2005, SG underwent a two week course of topical Ciprodex augmented with 2% NAC. Verbal informed consent was obtained prior to starting treatment.
At this point, BT was started on a two week course of topical Ciprodex augmented with 2% NAC. Verbal informed consent was obtained prior to starting treatment.
In November 2005, DL was started on a two week course of topical Ciprodex augmented with 2% NAC. Verbal informed consent was obtained prior to starting treatment. […] The same solution was insufflated into the ear after an aggressive debridement, and they were started on another two week course. The patient traveled abroad for one month, and returned in January 2006. […]

[13] = patient two (Example 1), 1997-2005, topical or oral as stated

CN[C@@H](C)[C@@H](O)c1ccccc1 [Sudafed]
response of effusion, tube plugging and otorrhea to conventional treatment [1]: effusion and plugging continued

CC(=O)N[C@@H](CS)C(=O)O [NAC, N-acetylcysteine]
fibroblast proliferation, collagen synthesis, and inflammatory markers [2]: Marked reductions | tympanic membrane scarring [2]: effectively reduced this scarring | adherence of Streptococcus pneumoniae to human oropharyngeal cells (Streptococcus pneumoniae): reduces the adherence | protection against oxidative OHC damage from cisplatin or aminoglycosides [3]: protect against oxidative OHC damage | adherence of Haemophilus influenzae to mucus and human oropharyngeal cells (Haemophilus influenzae): reduces the adherence | adherence of Escherichia coli to polystyrene (Escherichia coli): reduces the adherence | adherence of Moraxella catarrhalis to human pharyngeal cells (Moraxella catarrhalis): reduces the adherence | viscosity reductions [4]: 21-39% | TT reinsertion, recurrence of otitis media, need for physician visits [5]: decreases | tympanostomy tube (TT) longevity [5]: increases | clearance of thick middle ear effusions [6]: may speed the clearance | adherence of Klebsiella pneumoniae to polystyrene (Klebsiella pneumoniae): reduces the adherence | adherence of polymicrobial cultures to stainless steel and tracheoesophageal puncture prostheses (polymicrobial cultures): reduces the adherence | adherence of Bacillus species to stainless steel (Bacillus species): reduces the adherence | hydrogen peroxide-mediated damage to OHCs [7]: completely prevented | fibroblast proliferation, collagen synthesis, and inflammatory markers [8]: Marked reductions | tympanic membrane scarring [8]: effectively reduced this scarring | adherence of Staphylococcus epidermidis to polystyrene [9]: reduces the adherence | killing of Pseudomonas cultures (Pseudomonas cultures; NAC administered alone, concentration of only 0.002%): 95% | decrease of the efficacy of aminoglycoside antibiotics (Pseudomonas cultures; combination with aminoglycoside antibiotics): 2-16 fold | interaction with ticarcillin and carbenicillin (Pseudomonas cultures; combination with ticarcillin and carbenicillin): strong synergy | oral bioavailability [10]: 5-10%

CC1COc2c(N3CCN(C)CC3)c(F)cc3c(=O)c(C(=O)O)cn1c23 (racemic) [Floxin, (±)-9-fluoro-2,3-dihydro-3-methyl-10-(4-methyl-1-piperazinyl)-7-oxo-7H-pyrido[1,3,3-de]-1,4-benzoxazine-6-carboxylic acid]
response of effusion, tube plugging and otorrhea to conventional treatment [1]: continued essentially unchanged

O=C(N[C@H](CO)[C@H](O)c1ccc([N+](=O)[O-])cc1)C(Cl)Cl [chloramphenicol]
response of otorrhea to conventional treatment [11, 13]: failed to respond

CC[C@H]1OC(=O)[C@H](C)[C@@H](O[C@H]2C[C@@](C)(OC)[C@@H](O)[C@H](C)O2)[C@H](C)[C@@H](O[C@@H]2O[C@H](C)C[C@H](N(C)C)[C@H]2O)[C@](C)(O)C[C@@H](C)CN(C)[C@H](C)[C@@H](O)[C@]1(C)O [azithromycin]
response of otorrhea to conventional treatment [11, 13]: symptoms continued essentially unabated | response of effusion, tube plugging and otorrhea to conventional treatment [1]: effusion and plugging continued; also recorded: continued essentially unchanged

Cc1ncc([N+](=O)[O-])n1CCO [Flagyl, 2-Methyl-5-nitro-imidazole-1-ethanol]
response of otorrhea to conventional treatment ([11]; patient four (Example 2), 2004-2005, topical or oral as stated): otorrhea persisted | response of otorrhea to conventional treatment [11, 13]: symptoms continued essentially unabated

CN(C/C=C/C#CC(C)(C)C)Cc1cccc2ccccc12.Cl [Lamisil, (E)-N-(6,6-dimethyl-2-hepten-4-ynyl)-N-methyl-1-naphthalenemethanamine hydrochloride]
tolerability [12]: could tolerate only three days of treatment secondary to gastrointestinal side effects

O=C(O)c1cn(C2CC2)c2cc(N3CCNCC3)c(F)cc2c1=O [ciprofloxacin drops, 1-cyclopropyl-6-fluoro-1,4-dihydro-4-oxo-7-(1-piperazinyl)-3-quinolinecarboxylic acid]
response of otorrhea to conventional treatment [11, 13]: continued to drain through December; also recorded: failed to respond; also recorded: otorrhea resolved | response of otorrhea to conventional treatment ([11]; patient two (Example 1), 1997-2005, topical or oral as stated, listed as ciprofloxacin): symptoms continued essentially unabated | response of effusion, tube plugging and otorrhea to conventional treatment [1]: effusion and plugging continued; also recorded: tube plugging and otorrhea continued | response of otorrhea/effusion to conventional treatment ([1]; patient three (Example 3), 2005, topical or oral as stated): developed recurrent otorrhea on the right side

CC[C@H]1OC(=O)[C@H](C)[C@@H](O[C@H]2C[C@@](C)(OC)[C@@H](O)[C@H](C)O2)[C@H](C)[C@@H](O[C@@H]2O[C@H](C)C[C@H](N(C)C)[C@H]2O)[C@](C)(OC)C[C@@H](C)C(=O)[C@H](C)[C@@H](O)[C@]1(C)O [Biaxin, 6-O-methylerythromycin]
response of otorrhea to conventional treatment [11, 13]: failed to respond

CN[C@H](CC(C)C)C(=O)N[C@H]1C(=O)N[C@@H](CC(N)=O)C(=O)N[C@H]2C(=O)N[C@H]3C(=O)N[C@H](C(=O)N[C@H](C(=O)O)c4cc(O)cc(O)c4-c4cc3ccc4O)[C@H](O)c3ccc(c(Cl)c3)Oc3cc2cc(c3O[C@@H]2O[C@H](CO)[C@@H](O)[C@H](O)[C@H]2O[C@H]2C[C@](C)(N)[C@H](O)[C@H](C)O2)Oc2ccc(cc2Cl)[C@H]1O [vancomycin]
response of otorrhea to conventional treatment [11, 13]: some improvement
